Test system: IFN-a/Jak1Tyk2
Test: Co-stimulation assay in lysed whole blood: IFNa (JAK1/TYK2) stimulated STAT1 phosphorylation
Assay type: cell-based
Settings: lysed human whole blood, IFNa 100 ng/mL (co-stimulated with GM-CSF 10 ng/mL), pSTAT1 by flow cytometry
Experimental: Example 4: Co-Stimulation Assay in Lysed Whole Blood; JAK2: GM-CSF Stimulated STATS Phosphorylation and JAK1/TYK2 Stimulated STAT1 Phosphorylation Assay
Human Blood Lysis Using Abcam's RBC Lysis Buffer
Dilute RBC lysis buffer to 1× in distilled water. Add 2 mL blood to 38 mL of 1×RBC-lysis buffer. Incubate for 15 mins at RT, in dark. Spin at 300 g, 5 mins, to collect the pellet. Re-lyse if necessary. Re-suspend pellet in 5 mL of cRPMI.
Compound and Cytokine Treatment
Aliquot 80 μL of lysed human blood in to wells of 96 deep-well plate. Add 10 μl of (10× conc.) of different concentrations of compounds to all wells except controls (unstained and unstimulated) and mix it with the help of 100 uL multichannel. Add 10 uL of RPMI media in controls. For dilution of compounds and dilution range please refer Appendix. Incubate on water bath or CO2 incubator for 1 hour at 37° C. Add 10 μL of (10× conc.) of cytokine mix (GM-CSF and IFNa) (final conc. 10 ng/mL of GM-CSF and 100 ng/mL of IFNa) to each well except unstimulated and unstained controls and incubate further for 20 minutes on water bath at 37° C.
Add 900 μL of prewarmed 1× Fix/Lyse solution (Appendix) and mix it properly using 1000 μl multichannel, incubate further on water bath at 37° C. for 10 minutes (which includes time of addition). Centrifuge at 800× g for 5 minutes at 40° C.; remove 900 uL of supernatant and add 900 μL of 1×PBS. Centrifuge at 800× g for 5 minutes at 40° C., remove 900 μL of supernatant. Wash one more time with 900 μL of PBS (optional) and resuspend pellets in 100 uL of PBS.
Disrupt the pellet by gentle tapping and resuspend in 1000 μL of BD Phosflow Perm Buffer III and incubate plate on ice for 30 minutes. Centrifuge plate at 800× g for 5 minutes at 40° C. Wash two more times with 1000 μL of BD Pharmingen Stain Buffer.
Disrupt the pellet by gentle tapping. Resuspend pellets in 100 uL of Stain Buffer and add 5 μL of pSTAT5_AF488 Ab and 5 uL of pSTAT1_PE in all wells except unstained control and mix properly using 200 μl multichannel, incubate overnight at […]. Add 900 μL of wash buffer and centrifuge at 1800 rpm for 3 minutes at […]. Wash one more time with 1000 μL of BD Pharmingen Stain Buffer. Finally resuspend the pellet in 300 uL of BD Pharmingen Stain Buffer. Transfer the cells to 96-well v-bottom plate and acquire the cells in Beckman Coulter CytExpert. Acquiring cells in Flow Cytometer: Keep the threshold value to 250 and cell concentration should not exceed 100-500 cells/μL. Acquire at least 5,000-10,000 cells.
RPMI 1640 Complete Medium: RPMI 1640 media+10% FBS.
Cytokine dilution: 1) GM-CSF Stock at 100 ug/mL. Prepare an intermediate dilution of 1 ug/mL by adding 2 uL of stock into 198 uL of cRPMI. Further dilute to 100 ng/mL by adding 100 uL of the intermediate stock to 900 uL of cRPMI. 2) IFNa Stock at 200 ug/mL. Dilute IFNa stock 1:200 by adding 5 uL of stock into the 1000 uL of 100 ng/mL GM-CSF working stock as above to give a combined working stock of 1000 ng/mL of IFNa and 100 ng/mL GM-CSF (lox). Keep it on ice until used.
Lyse/Fix buffer preparation: Dilute 5× Lyse/Fix buffer to 1× using MQ water and keep at 37° C. until used.
BD Phosflow perm buffer III: Keep on ice/fridge.

| IC50 [nM] | SMILES |
| --- | --- |
| ≤ 500 | CNc1cc2nc3c(cnn13)C(=O)NCCOc1cccc(c1)N2 [Compound 7, (1^3E,1^4E)-1^7-(methylamino)-4-oxa-2,7-diaza-1(5,3)-pyrazolo[1,5-a]pyrimidina-3(1,3)-benzenacyclooctaphan-8-one] |
| 100 to 1000 | CNc1cc2nn3c(cnc13)C(=O)NCCOc1cccc(c1)N2 [Compound 12, (E)-1^8-(methylamino)-4-oxa-2,7-diaza-1(6,3)-imidazo[1,2-b]pyridazina-3(1,3)-benzenacyclooctaphan-8-one] |
| ≤ 500 | [2H]C([2H])([2H])Nc1cc2nc3c(cnn13)C(=O)NCCOc1cccc(c1)N2 [Compound 14, (1^3E,1^4E)-1^7-((methyl-d3)amino)-4-oxa-2,7-diaza-1(5,3)-pyrazolo[1,5-a]pyrimidina-3(1,3)-benzenacyclooctaphan-8-one] |
| ≤ 500 | [2H]C1([2H])NC(=O)c2cnn3c(NC)cc(nc23)Nc2cccc(c2)OC1([2H])[2H] [Compound 15, (1^3E,1^4E)-1^7-(methylamino)-4-oxa-2,7-diaza-1(5,3)-pyrazolo[1,5-a]pyrimidina-3(1,3)-benzenacyclooctaphn-8-one-5,5,6,6-d4] |
| ≤ 500 | CNc1cc2nc3c(cnn13)C(=O)NCCc1cccc(c1)N2 [Compound 16, (1^3E,1^4E)-1^7-(methylamino)-2,6-diaza-1(5,3)-pyrazolo[1,5-a]pyrimidina-3(1,3)-benzenacycloheptaphan-7-one] |
| 100 to 1000 | CNc1cc2nc3c(cnn13)C(=O)NCCCc1cccc(c1)N2 [Compound 18, (1^3E,1^4E)-1^7-(methylamino)-2,7-diaza-1(5,3)-pyrazolo[1,5-a]pyrimidina-3(1,3)-benzenacyclooctaphan-8-one] |
| 100 to 1000 | CNc1cc2nc3c(cnn13)C(=O)NCCOc1cc(F)cc(c1)N2 [Compound 19, (1^3E,1^4E)-3^5-fluoro-1^7-(methylamino)-4-oxa-2,7-diaza-1(5,3)-pyrazolo[1,5-a]pyrimidina-3(1,3)-benzenacyclooctaphan-8-one] |
| 100 to 1000 | CNc1cc2nc3c(cnn13)C(=O)NC(C)COc1cccc(c1)N2 (centres unmarked) [Compound 25, (1^3E,1^4E)-6-methyl-1^7-(methylamino)-4-oxa-2,7-diaza-1(5,3)-pyrazolo[1,5-a]pyrimidina-3(1,3)-benzenacyclooctaphan-8-one] |
| 100 to 1000 | CNc1cc2nc3c(cnn13)C(=O)NCCCCOc1cccc(c1)N2 [Compound 35, (1^3E,1^4E)-1^7-(methylamino)-4-oxa-2,9-diaza-1(5,3)-pyrazolo[1,5-a]pyrimidina-3(1,3)-benzenacyclodecaphan-10-one] |

The remaining lines, values behind:

| SMILES | IC50 [nM] |
| --- | --- |
| CNc1cc2nc3c(cnn13)C(=O)NCC(C)(C)c1cccc(c1)N2 [Compound 13, (1^3E,1^4E)-4,4-dimethyl-1^7-(methylamino)-2,6-diaza-1(5,3)-pyrazolo[1,5-a]pyrimidina-3(1,3)-benzenacycloheptaphan-7-one] | ≤ 500 |
| CNc1cc2nc3c(cnn13)C(=O)NCCOc1cccc(n1)N2 [Compound 17, (1^3E,1^4E)-1^7-(methylamino)-4-oxa-2,7-diaza-1(5,3)-pyrazolo[1,5-a]pyrimidina-3(2,6)-pyridinacyclooctaphan-8-one] | ≤ 500 |
| CNc1cc2nc3c(cnn13)C(=O)NCCOc1ccccc1N2 [Compound 20, (1^3E,1^4E)-1^7-(methylamino)-4-oxa-2,7-diaza-1(5,3)-pyrazolo[1,5-a]pyrimidina-3(1,2)-benzenacyclooctaphan-8-one] | 100 to 1000 |
| CNc1cc2nc3c(cnn13)C(=O)NCCOc1cc(ccc1F)N2 [Compound 21, (1^3E,1^4E)-3^4-fluoro-1^7-(methylamino)-4-oxa-2,7-diaza-1(5,3)-pyrazolo[1,5-a]pyrimidina-3(1,3)-benzenacyclooctaphan-8-one] | 100 to 1000 |
| CNc1cc2nc3c(cnn13)C(=O)NCCOc1ccc(F)c(c1)N2 [Compound 22, (1^3E,1^4E)-3^6-fluoro-1^7-(methylamino)-4-oxa-2,7-diaza-1(5,3)-pyrazolo[1,5-a]pyrimidina-3(1,3)-benzenacyclooctaphan-8-one] | 100 to 1000 |
| CNc1cc2nc3c(cnn13)C(=O)NCCOc1cc(ccc1Cl)N2 [Compound 23, (1^3E,1^4E)-3^4-chloro-1^7-(methylamino)-4-oxa-2,7-diaza-1(5,3)-pyrazolo[1,5-a]pyrimidina-3(1,3)-benzenacyclooctaphan-8-one] | 100 to 1000 |
| [2H]C([2H])([2H])Nc1cc2nc3c(cnn13)C(=O)NCCCc1cccc(c1)N2 [Compound 24, (1^3E,1^4E)-1^7-((methyl-d3)amino)-2,7-diaza-1(5,3)-pyrazolo[1,5-a]pyrimidina-3(1,3)-benzenacyclooctaphan-8-one] | 100 to 1000 |
| CNc1cc2nc3c(cnn13)C(=O)NCCOc1cc(C)cc(c1)N2 [Compound 26, (1^3E,1^4E)-3^5-methyl-1^7-(methylamino)-4-oxa-2,7-diaza-1(5,3)-pyrazolo[1,5-a]pyrimidina-3(1,3)-benzenacyclooctaphan-8-one] | 100 to 1000 |
| CNc1cc2nc3c(cnn13)C(=O)NCCOc1cc(c(Cl)cc1Cl)N2 [Compound 27, (1^3E,1^4E)-3^4,3^6-dichloro-1^7-(methylamino)-4-oxa-2,7-diaza-1(5,3)-pyrazolo[1,5-a]pyrimidina-3(1,3)-benzenacyclooctaphan-8-one] | 100 to 1000 |
| CNc1cc2nc3c(cnn13)C(=O)NCCOc1cc(cc(F)c1F)N2 [Compound 28, (1^3E,1^4E)-3^4,3^5-difluoro-1^7-(methylamino)-4-oxa-2,7-diaza-1(5,3)-pyrazolo[1,5-a]pyrimidina-3(1,3)-benzenacyclooctaphan-8-one] | 100 to 1000 |
| CNc1cc2nc3c(cnn13)C(=O)NCCOc1cc(c(F)cc1F)N2 [Compound 29, (1^5E,1^4E)-3^4,3^6-difluoro-1^7-(methylamino)-4-oxa-2,7-diaza-1(5,3)-pyrazolo[1,5-a]pyrimidina-3(1,3)-benzenacyclooctaphan-8-one] | 100 to 1000 |
| CNc1cc2nc3c(cnn13)C(=O)NCC(C)Oc1ccccc1N2 (centres unmarked) [Compound 30, (1^3E,1^4E)-5-methyl-1^7-(methylamino)-4-oxa-2,7-diaza-1(5,3)-pyrazolo[1,5-a]pyrimidina-3(1,2)-benzenacyclooctaphan-8-one] | 100 to 1000 |
| CNc1cc2nc3c(cnn13)C(=O)NCCOc1cc(ccc1OC)N2 [Compound 31, (1^3E,1^4E)-3^4-methoxy-1^7-(methylamino)-4-oxa-2,7-diaza-1(5,3)-pyrazolo[1,5-a]pyrimidina-3(1,3)-benzenacyclooctaphan-8-one] | 100 to 1000 |
| CNc1cc2nc3c(cnn13)C(=O)NCCOc1ccc(F)cc1N2 [Compound 32, (1^3E,1^4E)-3^5-fluoro-1^7-(methylamino)-4-oxa-2,7-diaza-1(5,3)-pyrazolo[1,5-a]pyrimidina-3(1,2)-benzenacyclooctaphan-8-one] | 100 to 1000 |
| CNc1cc2nc3c(cnn13)C(=O)NCCOc1cc(Cl)cc(c1)N2 [Compound 33, (1^3E,1^4E)-3^5-chloro-1^7-(methylamino)-4-oxa-2,7-diaza-1(5,3)-pyrazolo[1,5-a]pyrimidina-3(1,3)-benzenacyclooctaphan-8-one] | 100 to 1000 |
| CNc1cc2nc3c(cnn13)C(=O)NCCOc1cc(F)ccc1N2 [Compound 34, (1^3E,1^4E)-3^4-fluoro-1^7-(methylamino)-4-oxa-2,7-diaza-1(5,3)-pyrazolo[1,5-a]pyrimidina-3(1,2)-benzenacyclooctaphan-8-one] | 100 to 1000 |
| CNc1cc2nc3c(cnn13)C(=O)NC(C)COc1ccccc1N2 (centres unmarked) [Compound 36, (1^3E,1^4E)-6-methyl-1^7-(methylamino)-4-oxa-2,7-diaza-1(5,3)-pyrazolo[1,5-a]pyrimidina-3(1,2)-benzenacyclooctaphan-8-one] | 100 to 1000 |
